In brackets after ≈: the same amount, converted by molar mass.
Columns and labels:
Solubility in water = type: physicochemical; conditions: compound and its acceptable salts
Eimeria tenella = assay: Anticoccidial evaluation in infected chicks, intestinal lesions; type: in vivo, Eimeria tenella; chicks; conditions: for Percent Chicks with Reduced Lesions E. tenella: 7 days after inoculation
Method: (§1) The poultry diet employed in the test is as follows: The vitamin-amino acid premix in the above feed composition is prepared from the following formulation. The expressions of quantity relate to units per kilogram of the finished feed composition. A mixed inoculum of 5000 sporulated oocysts of Eimeria acervulina and a sufficient number of oocysts of Eimeria tenella to produce 60% to 75% mortality in untreated controls were given to one-day-old chicks, by direct inoculation into the crops of all chicks. The chicks were given free access to feed and water during the entire test period. Two days before inoculation, medicated feed with several levels of drug was presented to the various groups of chicks. Seven days after inoculation, the tests were terminated and the chicks were weighed, necropsied, and their intestinal tracts examined for lesions.

[1] = tested on: Eimeria acervulina and Eimeria tenella (mixed inoculum); assay: Anticoccidial evaluation in infected chicks, survival; type: in vivo, Eimeria tenella; chicks; conditions: for Percent Survival: chicks, 7 days after inoculation
Method: as §1

Eimeria acervulina = assay: Anticoccidial evaluation in infected chicks, intestinal lesions; type: in vivo, Eimeria acervulina; chicks; conditions: 0.5 ppm to 5.0 ppm in diet
Method: as §1

gram-positive bacteria = assay: In vitro antimicrobial spectrum, summary; type: cell-based
Method: (§2) The in vitro antimicrobial spectrum of LL-D42067β was determined by the agar plate dilution method with Mueller-Hinton agar and an inoculum of each test organism of approximately 10^4 colony forming units delivered by the Steers replicating device. The minimal inhibitory concentration (MIC) in mcg/ml was defined as the lowest concentration of LL-D42067β that inhibited visible growth after 18 hours incubation at 35° C.

yeasts = assay: In vitro antimicrobial spectrum, summary; type: cell-based
Method: as §2

Bacillus cereus = assay: In vitro antimicrobial spectrum, agar plate dilution MIC; type: cell-based; conditions: LL No. 4, Mueller-Hinton agar, 18 hours, 35° C.
Method: as §2

[2] = tested on: Staphylococcus epidermidis; assay: as above; type: cell-based; conditions: CMC 83-56, Mueller-Hinton agar, 18 hours, 35° C.
Method: as §2

Bacillus subtilis = assay: as above; type: cell-based; conditions: ATCC6633, ATCC 6633, Mueller-Hinton agar, 18 hours, 35° C.
Method: as §2

Streptococcus faecalis = assay: as above; type: cell-based; conditions: Enterococcus faecalis, ATCC29212; ATCC 29212; Mueller-Hinton agar, 18 hours, 35° C.
Method: as §2

Staphylococcus aureus = assay: as above; type: cell-based; conditions: 18 h, 35° C.
Method: as §2

Enterococcus = assay: as above; type: cell-based; conditions: 18 h, 35° C.
Method: as §2

Streptococcus sanguis = assay: as above; type: cell-based; conditions: G9B (a), Mueller-Hinton agar, 18 hours, 35° C.
Method: as §2

Micrococcus luteus = assay: as above; type: cell-based; conditions: PC 1001, Mueller-Hinton agar, 18 hours, 35° C.
Method: as §2

## COc1c2c(c(O)c3c(=O)c4c(oc13)[C@@H](O)CC[C@@H]4O)-c1c3c(c4cc(C)[nH]c(=O)c4c1O)OCO[C@H]3C2 (relative stereo) [LL-D42067β]
Solubility in water
  solubility in water: relatively insoluble in water
Eimeria tenella; 0.5 ppm to 5.0 ppm in diet
  suppression of lesions due to E. tenella: significant suppression of lesions
Eimeria tenella; 0.5 ppm in diet
  Percent Chicks with Reduced Lesions E. tenella: 0%
Eimeria tenella; 0.75 ppm in diet
  Percent Chicks with Reduced Lesions E. tenella: 40%
Eimeria tenella; 1.00 ppm in diet
  Percent Chicks with Reduced Lesions E. tenella: 80%
Eimeria tenella; 2.5 ppm in diet
  Percent Chicks with Reduced Lesions E. tenella: 100%
Eimeria tenella; 5.0 ppm in diet
  Percent Chicks with Reduced Lesions E. tenella: 100%
[1]; 0.5 ppm to 5.0 ppm in diet
  survival of infected chicks: improved survival
[1]; 0.5 ppm in diet
  Percent Survival: 40%
[1]; 0.75 ppm in diet
  Percent Survival: 60%
[1]; 1.00 ppm in diet
  Percent Survival: 80%
[1]; 2.5 ppm in diet
  Percent Survival: 100%
[1]; 5.0 ppm in diet
  Percent Survival: 80%
Eimeria acervulina
  suppression of lesions due to E. acervulina: significant suppression of lesions
gram-positive bacteria
  activity versus gram-positive bacteria: active
yeasts
  activity against yeasts: moderately active
Bacillus cereus
  MIC: ≤ 0.06 µg/mL
[2]
  MIC: 0.5 µg/mL (≈ 0.959 µM)
Bacillus subtilis
  MIC: 4 µg/mL (≈ 7.67 µM)
Streptococcus faecalis
  MIC: 1 µg/mL (≈ 1.92 µM)
Staphylococcus aureus; LL No. 14, Mueller-Hinton agar
  MIC: 0.5 µg/mL (≈ 0.959 µM)
Staphylococcus aureus; LL No. 27, Mueller-Hinton agar
  MIC: ≤ 0.06 µg/mL
Staphylococcus aureus; Smith, Mueller-Hinton agar
  MIC: 0.5 µg/mL (≈ 0.959 µM)
Enterococcus; OSU 75-1, Mueller-Hinton agar
  MIC: 1 µg/mL (≈ 1.92 µM)
Enterococcus; SM 77-15, Mueller-Hinton agar
  MIC: 2 µg/mL (≈ 3.84 µM)
Streptococcus sanguis
  MIC: 0.5 µg/mL (≈ 0.959 µM)
Micrococcus luteus
  MIC: ≤ 0.06 µg/mL
